Legend:
[1] = molecular target: T1, bovine mitochondrial complex I (proton-translocating NADH:ubiquinone oxidoreductase) (Bos taurus, UniProt P03887+P17694+P42026); assay: rate constant of D-to-A activation from lag phase of NADH oxidation, SMP; type: biochemical; details: D-form of complex I; pH 7.0, SET buffer, no alkali cations; control without EIPA 1.00 ± 0.04 min^-1; 165 μM NADH
T1 construct: gene NDUFS2; with NADH-ubiquinone oxidoreductase chain 3; NADH dehydrogenase [ubiquinone]; 1 alpha subcomplex subunit 9, mitochondrial; NADH-ubiquinone oxidoreductase chain 2; NADH-ubiquinone oxidoreductase chain 4; NADH-ubiquinone oxidoreductase chain 4L; NADH-ubiquinone oxidoreductase chain 5; NADH-ubiquinone oxidoreductase chain 6; NADH-ubiquinone oxidoreductase 75 kDa subunit, mitochondrial; NADH dehydrogenase [ubiquinone] flavoprotein 1, mitochondrial; NADH dehydrogenase [ubiquinone] flavoprotein 2, mitochondrial; NADH dehydrogenase [ubiquinone] iron-sulfur protein 3, mitochondrial; NADH dehydrogenase [ubiquinone] iron-sulfur protein 8, mitochondrial
T1 sequence (P17694 34-463): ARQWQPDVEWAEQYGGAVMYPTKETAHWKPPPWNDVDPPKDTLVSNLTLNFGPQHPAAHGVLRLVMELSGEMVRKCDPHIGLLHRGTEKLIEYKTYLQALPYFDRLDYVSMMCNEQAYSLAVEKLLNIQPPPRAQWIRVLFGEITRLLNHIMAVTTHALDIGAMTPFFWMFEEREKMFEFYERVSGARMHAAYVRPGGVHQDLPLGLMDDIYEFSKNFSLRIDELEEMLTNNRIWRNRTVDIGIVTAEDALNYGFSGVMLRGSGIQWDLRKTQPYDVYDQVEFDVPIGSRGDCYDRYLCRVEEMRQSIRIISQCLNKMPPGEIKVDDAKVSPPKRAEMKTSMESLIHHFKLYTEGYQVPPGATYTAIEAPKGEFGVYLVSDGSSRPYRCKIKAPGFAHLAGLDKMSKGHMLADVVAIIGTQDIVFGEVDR
T1 sequence (P42026 38-216): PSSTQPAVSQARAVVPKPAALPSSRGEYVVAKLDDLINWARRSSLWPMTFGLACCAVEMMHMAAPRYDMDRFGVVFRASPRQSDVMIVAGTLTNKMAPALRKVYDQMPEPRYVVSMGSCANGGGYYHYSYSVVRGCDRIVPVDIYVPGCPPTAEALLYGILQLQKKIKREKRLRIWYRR
T1 sequence (P03887 whole entry): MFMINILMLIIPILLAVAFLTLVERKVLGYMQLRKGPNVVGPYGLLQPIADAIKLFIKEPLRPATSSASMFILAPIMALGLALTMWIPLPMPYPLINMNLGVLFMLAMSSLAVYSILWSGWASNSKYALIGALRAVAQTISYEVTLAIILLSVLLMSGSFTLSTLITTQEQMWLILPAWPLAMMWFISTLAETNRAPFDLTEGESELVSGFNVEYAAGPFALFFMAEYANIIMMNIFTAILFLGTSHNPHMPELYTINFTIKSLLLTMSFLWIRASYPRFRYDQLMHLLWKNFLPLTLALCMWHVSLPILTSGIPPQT
T1 sequence (P03898 whole entry partner): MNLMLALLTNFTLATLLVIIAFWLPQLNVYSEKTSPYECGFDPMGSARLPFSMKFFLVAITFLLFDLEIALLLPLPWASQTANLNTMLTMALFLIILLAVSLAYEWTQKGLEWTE
T1 sequence (P34943 36-380 partner): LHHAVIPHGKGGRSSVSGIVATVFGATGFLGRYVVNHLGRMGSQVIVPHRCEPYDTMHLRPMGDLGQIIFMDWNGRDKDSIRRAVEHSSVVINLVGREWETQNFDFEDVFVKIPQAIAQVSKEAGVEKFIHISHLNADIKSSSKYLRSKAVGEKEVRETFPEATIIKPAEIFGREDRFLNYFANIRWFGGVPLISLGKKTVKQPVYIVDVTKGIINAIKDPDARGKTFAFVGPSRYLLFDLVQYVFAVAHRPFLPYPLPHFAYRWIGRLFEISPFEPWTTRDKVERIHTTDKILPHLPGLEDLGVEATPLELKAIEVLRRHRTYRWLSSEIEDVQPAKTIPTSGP

[2] = molecular target: T1, bovine mitochondrial complex I (proton-translocating NADH:ubiquinone oxidoreductase); assay: NADH:Q1 oxidoreductase inhibition, SMP, NADH absorbance at […] nm; type: biochemical; details: neutral pH (7.0; Figure 7 caption gives NADH-oxidase reaction, A-form); SET buffer, 25 °C, 165 μM NADH; 5-7 min preincubation

Structure (SMILES): CCN(c1nc(N)c(C(=O)NC(=N)N)nc1Cl)C(C)C [EIPA]
- kD → A at 20 μM EIPA [1]: 0.22 ± 0.04 min^− 1
- IC50 [2]: ~40 µM

— PMC4607728, “Effect of monovalent cations on the kinetics of hypoxic conformational change of mitochondrial complex I” (Biochimica et Biophysica Acta, 2015)
